PMC9572513, “Novel Unsymmetric 3,5-Bis(benzylidene)-4-piperidones That Display Tumor-Selective Toxicity” (Molecules, 2022)
Where a name gives a salt, the structure may show the parent alone. Read-outs that look alike come from different tables or passages of the source.

How the values were obtained:
[1] = tested on: Ca9-22 squamous cell carcinoma cells; test: MTT cytotoxicity against Ca9-22 squamous cell carcinoma; format: cell-based, human; details: for CC50: Homo sapiens, Ca9-22, 48 h, MTT, read-out: Ca9-22 CC50; for Ca9-22 SI: average CC50 HGF/HPLF/HPC divided by CC50 Ca9-22
Description: (§1) The method for evaluating 2a–f and 3a–e against human oral squamous cell carcinoma (OSCC) cell lines (Ca9-22, HSC-2, HSC-3, HSC-4) and human non-malignant oral cells [human gingival fibroblast (HGF), human periodontal ligament fibroblast (HPLF), and human pulp cell (HPC)] have been reported previously, except the length of time of this bioassay was extended from 24 h to 48 h. In brief, different quantities of the compounds were incubated with the cells in Dulbecco’s modified eagle medium (DMEM), which was supplemented with 10% FBS and antibiotics. The cell viability was determined by the 3-(4,5-dimethylthiazol-2-yl)-2,5-diphenyl-2H-tetrazolium bromide (MTT) method as summarized previously (Figure 4).

[2] = tested on: HCT116 colon cancer cells; test: Cytotoxicity against HCT116 colon cancer cells; format: cell-based, human; details: for IC50: 48 h; for HCT116 SI (selectivity index): IC50 CRL1790 / IC50 HCT116
Description: (§2) The culture medium was supplemented with 10% heat-inactivated fetal bovine serum (FBS) and 1% penicillin–streptomycin antibiotics. The time of the bioassays was 48 h. The determinations were undertaken in triplicate on three different occasions.

[3] = tested on: HSC-2 squamous cell carcinoma cells; test: MTT cytotoxicity against HSC-2 squamous cell carcinoma; format: cell-based, human; details: for CC50: Homo sapiens, HSC-2, 48 h, MTT, read-out: HSC-2 CC50; for HSC-2 SI: average CC50 HGF/HPLF/HPC divided by CC50 HSC-2
Description: as §1

[4] = MTT cytotoxicity against human pulp cell (HPC); format: cell-based; details: human, human pulp cells (HPC), non-malignant oral cells
Description: as §1

[5] = MTT cytotoxicity against human periodontal ligament fibroblast (HPLF); format: cell-based; details: human, human periodontal ligament fibroblasts (HPLF), non-malignant oral cells
Description: as §1

[6] = tested on: CEM cells; test: Differential DNA staining (DNS) cytotoxicity assay, CEM cells; format: cell-based; details: Homo sapiens, CCRF-CEM
Description: (§3) The method used for generating the data of human acute lymphocytic leukemia (CEM) and human acute promyelocytic leukemia (HL-60) cells in Table 4 has been described previously. In brief, the cells were cultured in media supplemented with 10% FBS and antibiotics. […] The CC50 values of the compounds listed in Table 4 were obtained by linear interpolation equations [28, 29].

[7] = tested on: CRL1790 non-malignant colon cells; test: Cytotoxicity against CRL1790 non-malignant colon cells; format: cell-based; details: Homo sapiens, 48 h
Description: as §2

[8] = tested on: HSC-4 squamous cell carcinoma cells; test: MTT cytotoxicity against HSC-4 squamous cell carcinoma; format: cell-based, human; details: for CC50: Homo sapiens, HSC-4, 48 h, MTT, read-out: HSC-4 CC50; for HSC-4 SI: average CC50 HGF/HPLF/HPC divided by CC50 HSC-4
Description: as §1

[9] = tested on: HSC-3 squamous cell carcinoma cells; test: MTT cytotoxicity against HSC-3 squamous cell carcinoma; format: cell-based, human; details: for CC50: Homo sapiens, HSC-3, 48 h, MTT, read-out: HSC-3 CC50; for HSC-3 SI: average CC50 HGF/HPLF/HPC divided by CC50 HSC-3
Description: as §1

[10] = tested on: HCT116 and HT29 colon cancer cells; test: Average over HCT116 and HT29 colon cancer cells; format: cell-based, human; details: for IC50: Homo sapiens, average of HCT116 and HT29, unit printed only for the single cell-line columns; for Average SI: average of SI for HCT116 and HT29; for PSE (potency-selectivity expression): reciprocal of average IC50 x average SI x 100, colon cells
Description: as §2

[11] = tested on: HL-60 cells; test: Differential DNA staining (DNS) cytotoxicity assay, HL-60 cells; format: cell-based; details: Homo sapiens
Description: as §3

[12] = MTT cytotoxicity against human gingival fibroblast (HGF); format: cell-based; details: human, human gingival fibroblasts (HGF), non-malignant oral cells
Description: as §1

[13] = tested on: HT29 colon cancer cells; test: Cytotoxicity against HT29 colon cancer cells; format: cell-based, human; details: for IC50: 48 h; for HT29 SI (selectivity index): IC50 CRL1790 / IC50 HT29
Description: as §2

[14] = Average over HGF, HPLF and HPC non-malignant oral cells; format: cell-based, human; details: human, HPLF and HPC non-malignant oral cells (average), average of HGF
Description: as §1

[15] = tested on: Ca9-22, HSC-2, HSC-3, and HSC-4 squamous cell carcinoma cell lines; test: Average over Ca9-22, HSC-2, HSC-3 and HSC-4 OSCC cell lines; format: cell-based, human; details: for CC50: average of four OSCC cell lines, read-out: Average CC50; for PSE (potency-selectivity expression): reciprocal of average CC50 (OSCC) x average SI x 100
Description: as §1

[16] = tested on: Ca9-22 cells; test: Western blot for caspase 3 activation in Ca9-22 cells; format: cell-based, human; details: 3 μM, 24 h
Description: (§4) Apoptosis induction in Ca9-22 cells was evaluated by cell cycle analysis and Western blot analysis as described previously (Figure 5). Briefly, for the cell cycle analysis, cells were treated for 24 h with the test samples. Cells were then fixed, digested with RNase A, stained with propidium iodide, filtered through Falcon® cell trainers (Corning Inc., Corning, NY, USA), and then subjected to cell sorting. For the Western blot, cell lysates (equivalent to 5 µg protein) were applied to SDS-polyacrylamide gel electrophoresis. A literature method was used to determine whether representative compounds led to increases in the production of ROS [29]. In brief, CEM cells were treated with the compounds overnight, then with 6-carboxy-2′,7′-dichlorodihydrofluorescein diacetate (carboxy-H2DCFDA) and the samples were processed using flow cytometry.

[17] = tested on: CEM cells; test: ROS production in CEM cells (carboxy-H2DCFDA, flow cytometry); format: cell-based, human; details: CC50 and twice the CC50 concentrations
Description: as §4

[18] = tested on: CEM cells; test: Mitochondrial membrane potential in CEM cells (JC-1, flow cytometry); format: cell-based, human; details: 7 h
Description: The effect on the mitochondrial membrane potential in CEM cells was undertaken using a published method. In brief, the cells were incubated with different compounds for 7 h. The cells were then stained with the JC-1 dye, and the samples were examined by flow cytometry. The results are portrayed in Figure 6C.

[19] = tested on: CEM cells; test: Annexin V-FITC apoptosis assay in CEM cells; format: cell-based, human; details: CC50 and twice the CC50 concentrations, 24 h
Description: In order to discover if representative compounds induce apoptosis, the annexin V-FITC assay was used. In brief, CEM cells were treated with various compounds for 24 h. The cells were collected and stained with propidium iodide and annexin V-FITC.

[20] = 24 h, read-out: CC50 CEM Cells 24 h
[21] = 48 h, read-out: CC50 CEM Cells 48 h
[22] = HL-60, 24 h, read-out: CC50 HL-60 Cells 24 h
[23] = HL-60, 48 h, read-out: CC50 HL-60 Cells 48 h

IC50 [10]	Structure (SMILES)	CC50 [1]	Ca9-22 SI [1]	CC50 [3]	HSC-2 SI [3]	CC50 at 48 h [4]	CC50 at 48 h [5]	CC50 [6, 20]	CC50 [6, 21]	IC50 [7]	CC50 [8]	HSC-4 SI [8]	CC50 [9]	HSC-3 SI [9]	Average SI [10]	PSE (potency-selectivity expression) [10]	CC50 [11, 22]	CC50 [11, 23]	CC50 at 48 h [12]	CC50 at 48 h [14]	also measured
720 nM	COc1ccc(/C=C2\CNC/C(=C\c3ccc(O)c(CN4CCN(C)CC4)c3)C2=O)cc1OC [Compound 2f, 3-[3-(4-Methyl-1-piperazinylmethyl)-4-hydroxybenzylidene]-5-(3,4-dimethoxybenzylidene)-4-piperidone trihydrochloride]	1940 nM	8.81	2800 nM	6.11	6100 nM	12000 nM	8910 ± 1320 nM	2890 ± 200 nM	12700 ± 310 nM	2730 nM	6.26	2470 nM	6.92	17.7	2458	3750 ± 1070 nM	2730 ± 570 nM	33100 nM	17100 nM	IC50 [2]: 680 ± 310 nM; IC50 ([2]; Homo sapiens, HCT-116, 48 h): < 1000 nM; HCT116 SI (selectivity index) [2]: 18.7; IC50 [13]: 760 ± 300 nM; IC50 ([13]; Homo sapiens, HT-29, 48 h): < 1000 nM; HT29 SI (selectivity index) [13]: 16.7; CC50 ([15]; Homo sapiens): 2490 nM; Average SI ([15]; average of SI for four OSCC cell lines): 7.03
370 nM	CN1CCN(Cc2cc(/C=C3\CNC/C(=C\c4ccccc4)C3=O)ccc2O)CC1 [Compound 3a]	430 nM	13.6	670 nM	8.70	2600 nM	4700 nM	3060 ± 80 nM	3320 ± 300 nM	21700 ± 250 nM	710 nM	8.21	490 nM	11.9	60.1	16,243	8270 ± 400 nM	1670 ± 540 nM	10200 nM	5830 nM	caspase 3 activation (cleavage of PARP and procaspase) [16]: induced; ROS generation [17]: generate ROS; depolarization of the mitochondrial membrane potential [18]: induced; apoptotic cells [19]: approximately 30%; CC50 ([15]; Homo sapiens): < 1000 nM; CC50 [15]: 580 nM; PSE (potency-selectivity expression) [15]: > 1000
270 nM	CN1CCN(Cc2cc(/C=C3\CNC/C(=C\c4ccc(F)cc4)C3=O)ccc2O)CC1 [Compound 3b]	550 nM	18.4	910 nM	11.1	4300 nM	7400 nM	3150 ± 1290 nM	400 ± 30 nM	12600 ± 240 nM	1140 nM	8.86	950 nM	10.6	46.8	17,333	5900 ± 760 nM	2650 ± 430 nM	18500 nM	10100 nM	HCT116 SI (selectivity index) [2]: 45.0; HT29 SI (selectivity index) [13]: 48.5; CC50 ([15]; Homo sapiens): < 1000 nM; CC50 [15]: 890 nM; PSE (potency-selectivity expression) [15]: > 1000
330 nM	CN1CCN(Cc2cc(/C=C3\CNC/C(=C\c4ccc([N+](=O)[O-])cc4)C3=O)ccc2O)CC1 [Compound 3e]	330 nM	17.3	580 nM	9.83	1900 nM	2700 nM	760 ± 150 nM	830 ± 30 nM	15800 ± 270 nM	600 nM	9.50	470 nM	12.1	48.0	14,546	4110 nM	6630 ± 680 nM	12500 nM	5700 nM	HCT116 SI (selectivity index) [2]: 46.5; caspase 3 activation (cleavage of PARP and procaspase) [16]: induced; ROS generation [17]: generate ROS; depolarization of the mitochondrial membrane potential [18]: induced; apoptotic cells [19]: approximately 30%; HT29 SI (selectivity index) [13]: 49.4; CC50 ([15]; Homo sapiens): < 1000 nM; CC50 [15]: 500 nM
